Each molecule was assayed against T1, OX2R (Homo sapiens, UniProt O43614) (assay: radioligand binding assay, membranes from CHO cells expressing the OX2 receptor). Settings: CHO cell membranes.
T1 construct: expressed in transfected cells; host or cells: CHO cells (membranes)
T1 sequence (O43614 1-444): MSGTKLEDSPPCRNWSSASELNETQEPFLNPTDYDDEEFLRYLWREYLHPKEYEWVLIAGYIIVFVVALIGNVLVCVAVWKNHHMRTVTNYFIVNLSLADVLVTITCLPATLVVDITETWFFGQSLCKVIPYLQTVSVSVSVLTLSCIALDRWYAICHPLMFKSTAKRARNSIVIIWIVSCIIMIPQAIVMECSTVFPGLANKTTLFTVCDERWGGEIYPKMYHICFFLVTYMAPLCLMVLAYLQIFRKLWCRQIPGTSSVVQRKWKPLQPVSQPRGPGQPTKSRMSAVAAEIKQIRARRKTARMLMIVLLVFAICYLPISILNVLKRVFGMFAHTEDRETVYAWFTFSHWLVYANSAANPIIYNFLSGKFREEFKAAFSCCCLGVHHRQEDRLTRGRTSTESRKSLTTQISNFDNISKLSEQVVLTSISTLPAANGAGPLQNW
Procedure: The utility of the compounds in accordance with the present invention as orexin receptor OX1R and/or OX2R antagonists may be readily determined without undue experimentation by methodology well known in the art, including the “FLIPR Ca^2+ Flux Assay” (Okumura et al., Biochem. Biophys. Res. Comm. 280:976-981, 2001). In a typical experiment the OX1 and OX2 receptor antagonistic activity of the compounds of the present invention was determined in accordance with the following experimental method. For intracellular calcium measurements, Chinese hamster ovary (CHO) cells expressing the rat orexin-1 receptor or the human orexin-2 receptor, are grown in Iscove's modified DMEM containing 2 mM L-glutamine, […], 1% hypoxanthine-thymidine supplement, 100 U/ml penicillin, 100 ug/ml streptomycin and 10% heat-inactivated fetal calf serum (FCS). The cells are seeded at 20,000 cells/well into Becton-Dickinson black 384-well clear bottom sterile plates coated with poly-D-lysine. All reagents were from GIBCO-Invitrogen Corp. The seeded plates are incubated overnight at 37° C. and 5% CO2. Ala-6,12 human orexin-A as the agonist is prepared as a 1 mM stock solution in 1% bovine serum albumin (BSA) and diluted in assay buffer (HBSS containing 20 mM HEPES, 0.1% BSA and 2.5 mM probenecid, pH7.4) for use in the assay at a final concentration of 70 pM. Test compounds are prepared as 10 mM stock solution in DMSO, then diluted in 384-well plates, first in DMSO, then assay buffer. On the day of the assay, cells are washed 3 times with 100 ul assay buffer and then incubated for 60 min (37° C., 5% CO2) in 60 ul assay buffer containing 1 uM Fluo-4AM ester, 0.02% pluronic acid, and 1% BSA. The dye loading solution is then aspirated and cells are washed 3 times with 100 ul assay buffer. 30 ul of that same buffer is left in each well. Within the Fluorescent Imaging Plate Reader (FLIPR, Molecular Devices), test compounds are added to the plate in a volume of 25 ul, incubated for 5 min and finally 25 ul of agonist is added. Fluorescence is measured for each well at 1 second intervals for 5 minutes and the height of each fluorescence peak is compared to the height of the fluorescence peak induced by 70 pM Ala-6,12 orexin-A with buffer in place of antagonist. For each antagonist, IC50 value (the concentration of compound needed to inhibit 50% of the agonist response) is determined. Alternatively, compound potency can be assessed by a radioligand binding assay (described in Bergman et. al. Bioorg. Med. Chem. Lett. 2008, 18, 1425-1430) in which the inhibition constant (Ki) is determined in membranes prepared from CHO cells expressing either the OX1 or OX2 receptor. The intrinsic orexin receptor antagonist activity of a compound which may be used in the present invention may be determined by these assays.

| SMILES | Ki [nM] |
| --- | --- |
| CNC(=O)[C@@H](c1ccccc1)N1CCc2nc(OC)c(OC)cc2[C@@H]1CCc1ccc(Cl)cc1 [Compound 1-7, (2R)-2-[(5S)-5-[2-(4-chlorophenyl)-ethyl]-2,3-dimethoxy-7,8-dihydro-1,6-naphthyridin-6(5H)-yl]-N-methyl-2-phenylethanamide] | 0.26 |
| CNC(=O)[C@@H](c1ccccc1)N1CCc2nc(OC)c(OC)cc2[C@@H]1CCc1ccc(F)cc1F [Compound 1-8, (2R)-2-[(5S)-5-[2-(2,4-difluoro-phenyl)ethyl]-2,3-dimethoxy-7,8-dihydro-1,6-naphthyridin-6(5H)-yl]-N-methyl-2-phenylethanamide] | 1 |
| CNC(=O)[C@@H](c1ccccc1)N1CCc2nc(OC)c(OC)nc2[C@@H]1CCc1ccc(C(F)(F)F)cc1 [Compound 1-11, (2R)-2-[(5S)-2,3-dimethoxy-5-{2-[4-(trifluoromethyl)phenyl]ethyl}-7,8-dihydropyrido[3,4-b]pyrazin-6(5H)-yl]-N-methyl-2-phenylethanamide] | 0.44 |

Now those with a lower Ki, led by results:

| Ki [nM] | SMILES |
| --- | --- |
| 0.19 | CNC(=O)[C@@H](c1ccccc1)N1CCc2nc(OC)c(OC)cc2[C@@H]1CCc1ccc(C(F)(F)F)cc1 [Compound 1-6, (2R)-2-[(5S)-2,3-dimethoxy-5-{-2-[4-(trifluoromethyl)phenyl]ethyl}-7,8-dihydro-1,6-naphthyridin-6(5H)-yl]-N-methyl-2-phenylethanamide] |
| 0.18 | CNC(=O)[C@@H](c1ccccc1)N1CCc2nc(OC)c(OC)cc2[C@@H]1CCc1ccc(C)cc1 [Compound 1-9, (2R)-2-[(5S)-2,3-dimethoxy-5-[2-(4-methylphenyl)ethyl]-7,8-dihydro-1,6-naphthyridin-6(5H)-yl]-N-methyl-2-phenylethanamide] |
| 0.17 | CNC(=O)[C@@H](c1ccccc1)N1CCc2cc(OC)c(OC)nc2[C@@H]1CCc1ccc(C(F)(F)F)cc1 [Compound 1-10, (2R)-2-[(8S)-2,3-dimethoxy-8-{2-[4-(trifluoromethyl)phenyl]ethyl}-5,8-dihydro-1,7-naphthyridin-7(6H)-yl]-N-methyl-2-phenylethanamide] |

— patent US20120101106A1, “Tetrahydronapthyridine Orexin Receptor Antagonists” (priority 2009, published 2012)
